Measurements from PubChem BioAssay (NCI).
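Compound exposure: 48 hours, 5 concentrations, 96-well plates. GI50 marks 50% less growth. TGI is the concentration that stops growth completely.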

Key:
Assay in all cases: inhibition of tumour cell growth, NCI panel, 48 h
A498 renal = tested on: A498 renal
DU-145 prostate = tested on: DU-145 prostate
SK-MEL-2 melanoma = tested on: SK-MEL-2 melanoma
COLO 205 colon = tested on: COLO 205 colon
K-562 leukemia = tested on: K-562 leukemia
HL-60(TB) leukemia = tested on: HL-60(TB) leukemia
SF-539 CNS = tested on: SF-539 CNS
IGROV1 ovarian = tested on: IGROV1 ovarian
SW-620 colon = tested on: SW-620 colon
SK-MEL-5 melanoma = tested on: SK-MEL-5 melanoma
CCRF-CEM leukemia = tested on: CCRF-CEM leukemia
RPMI-8226 leukemia = tested on: RPMI-8226 leukemia
MDA-MB-435 = tested on: MDA-MB-435
BT-549 breast = tested on: BT-549 breast
SNB-75 CNS = tested on: SNB-75 CNS
HCT-116 colon = tested on: HCT-116 colon
NCI-H460 lung = tested on: NCI-H460 lung
A549 NSCLC = tested on: A549 NSCLC
SNB-19 CNS = tested on: SNB-19 CNS
SF-268 CNS = tested on: SF-268 CNS
SK-MEL-28 melanoma = tested on: SK-MEL-28 melanoma
HOP-62 NSCLC = tested on: HOP-62 NSCLC
HS 578T breast = tested on: HS 578T breast
NCI-H23 lung = tested on: NCI-H23 lung
HOP-92 NSCLC = tested on: HOP-92 NSCLC
OVCAR-8 ovarian = tested on: OVCAR-8 ovarian
SF-295 CNS = tested on: SF-295 CNS
UACC-62 melanoma = tested on: UACC-62 melanoma
LOX IMVI melanoma = tested on: LOX IMVI melanoma
EKVX NSCLC = tested on: EKVX NSCLC
HCC-2998 colon = tested on: HCC-2998 colon
RXF 393 renal = tested on: RXF 393 renal
KM12 colon = tested on: KM12 colon
UACC-257 melanoma = tested on: UACC-257 melanoma
HT29 colon = tested on: HT29 colon
MALME-3M melanoma = tested on: MALME-3M melanoma
OVCAR-4 ovarian = tested on: OVCAR-4 ovarian
NCI/ADR-RES ovarian = tested on: NCI/ADR-RES ovarian
T-47D breast = tested on: T-47D breast
PC-3 prostate = tested on: PC-3 prostate
HCT-15 colon = tested on: HCT-15 colon
UO-31 renal = tested on: UO-31 renal
SN12C renal = tested on: SN12C renal
ACHN renal = tested on: ACHN renal
MCF7 breast = tested on: MCF7 breast
SK-OV-3 ovarian = tested on: SK-OV-3 ovarian
OVCAR-3 ovarian = tested on: OVCAR-3 ovarian
U251 CNS = tested on: U251 CNS
MDA-MB-231 breast = tested on: MDA-MB-231 breast
TK-10 renal = tested on: TK-10 renal
786-0 renal = tested on: 786-0 renal
OVCAR-5 ovarian = tested on: OVCAR-5 ovarian
M14 melanoma = tested on: M14 melanoma
NCI-H522 lung = tested on: NCI-H522 lung
NCI-H226 lung = tested on: NCI-H226 lung
CAKI-1 renal = tested on: CAKI-1 renal
MOLT-4 leukemia = tested on: MOLT-4 leukemia
SR leukemia = tested on: SR leukemia

## OCC(O)C(O)C(O)/C=N/Nc1nc2ccccc2nc1-c1ccccc1 (stereo unspecified)
A498 renal
  GI50: > 100 µM
  TGI: > 100 µM
DU-145 prostate
  GI50: > 100 µM
  TGI: > 100 µM
SK-MEL-2 melanoma
  GI50: > 100 µM
  TGI: > 100 µM
COLO 205 colon
  GI50: 51.6 µM
  TGI: > 100 µM
K-562 leukemia
  GI50: 68.9 µM
  TGI: > 100 µM
HL-60(TB) leukemia
  GI50: 5.15 µM
  TGI: > 100 µM
SF-539 CNS
  GI50: 20.5 µM
  TGI: > 100 µM
IGROV1 ovarian
  GI50: 57.4 µM
  TGI: > 100 µM
SW-620 colon
  GI50: > 100 µM
  TGI: > 100 µM
SK-MEL-5 melanoma
  GI50: 48.5 µM
  TGI: > 100 µM
CCRF-CEM leukemia
  GI50: 32.2 µM
  TGI: > 100 µM
RPMI-8226 leukemia
  GI50: 85.3 µM
  TGI: > 100 µM
MDA-MB-435
  GI50: > 100 µM
  TGI: > 100 µM
BT-549 breast
  GI50: > 100 µM
  TGI: > 100 µM
SNB-75 CNS
  GI50: > 100 µM
  TGI: > 100 µM
HCT-116 colon
  GI50: > 100 µM
  TGI: > 100 µM
NCI-H460 lung
  GI50: 70.3 µM
  TGI: > 100 µM
A549 NSCLC
  GI50: > 100 µM
  TGI: > 100 µM
SNB-19 CNS
  GI50: > 100 µM
  TGI: > 100 µM
SF-268 CNS
  GI50: 74.1 µM
  TGI: > 100 µM
SK-MEL-28 melanoma
  GI50: > 100 µM
  TGI: > 100 µM
HOP-62 NSCLC
  GI50: > 100 µM
  TGI: > 100 µM
HS 578T breast
  GI50: 83.6 µM
  TGI: > 100 µM
NCI-H23 lung
  GI50: > 100 µM
  TGI: > 100 µM
HOP-92 NSCLC
  GI50: 60.1 µM
  TGI: > 100 µM
OVCAR-8 ovarian
  GI50: 91.1 µM
  TGI: > 100 µM
SF-295 CNS
  GI50: > 100 µM
  TGI: > 100 µM
UACC-62 melanoma
  GI50: 67.3 µM
  TGI: > 100 µM
LOX IMVI melanoma
  GI50: 72.2 µM
  TGI: > 100 µM
EKVX NSCLC
  GI50: > 100 µM
  TGI: > 100 µM
HCC-2998 colon
  GI50: 91.2 µM
  TGI: > 100 µM
RXF 393 renal
  GI50: > 100 µM
  TGI: > 100 µM
KM12 colon
  GI50: > 100 µM
  TGI: > 100 µM
UACC-257 melanoma
  GI50: > 100 µM
  TGI: > 100 µM
HT29 colon
  GI50: > 100 µM
  TGI: > 100 µM
MALME-3M melanoma
  GI50: > 100 µM
  TGI: > 100 µM
OVCAR-4 ovarian
  GI50: 28.3 µM
  TGI: 72.2 µM
NCI/ADR-RES ovarian
  GI50: 45.9 µM
  TGI: > 100 µM
T-47D breast
  GI50: 41.5 µM
  TGI: > 100 µM
PC-3 prostate
  GI50: 82.4 µM
  TGI: > 100 µM
HCT-15 colon
  GI50: 86.3 µM
  TGI: > 100 µM
UO-31 renal
  GI50: > 100 µM
  TGI: > 100 µM
SN12C renal
  GI50: > 100 µM
  TGI: > 100 µM
ACHN renal
  GI50: > 100 µM
  TGI: > 100 µM
MCF7 breast
  GI50: 97.9 µM
  TGI: > 100 µM
SK-OV-3 ovarian
  GI50: > 100 µM
  TGI: > 100 µM
OVCAR-3 ovarian
  GI50: 46 µM
  TGI: > 100 µM
U251 CNS
  GI50: 77.9 µM
  TGI: > 100 µM
MDA-MB-231 breast
  GI50: 64.1 µM
  TGI: > 100 µM
TK-10 renal
  GI50: > 100 µM
  TGI: > 100 µM
786-0 renal
  GI50: > 100 µM
  TGI: > 100 µM
OVCAR-5 ovarian
  GI50: > 100 µM
  TGI: > 100 µM
M14 melanoma
  GI50: > 100 µM
  TGI: > 100 µM
NCI-H522 lung
  GI50: 72.7 µM
  TGI: > 100 µM
NCI-H226 lung
  GI50: > 100 µM
  TGI: > 100 µM
CAKI-1 renal
  GI50: 87.9 µM
  TGI: > 100 µM

## CN1CCN(c2ccc(C(=O)Nc3cc(-c4cccc(NS(=O)(=O)c5ccccc5)c4)[nH]n3)cc2)CC1
A498 renal
  GI50: 0.505 µM
  TGI: 9.75 µM
DU-145 prostate
  GI50: 8.52 µM
  TGI: 21.2 µM
SK-MEL-2 melanoma
  GI50: 6.85 µM
  TGI: 20.2 µM
COLO 205 colon
  GI50: 4.28 µM
  TGI: 14.1 µM
K-562 leukemia
  GI50: 2.89 µM
  TGI: 19.4 µM
HL-60(TB) leukemia
  GI50: 3.94 µM
  TGI: 16.1 µM
SF-539 CNS
  GI50: 1.79 µM
  TGI: 9.57 µM
IGROV1 ovarian
  GI50: 2.64 µM
  TGI: 21.9 µM
SW-620 colon
  GI50: 5.86 µM
  TGI: 27.2 µM
SK-MEL-5 melanoma
  GI50: 4.17 µM
  TGI: 9.23 µM
CCRF-CEM leukemia
  GI50: 3.28 µM
  TGI: 42.3 µM
RPMI-8226 leukemia
  GI50: 3.33 µM
  TGI: 14.5 µM
MDA-MB-435
  GI50: 6.84 µM
  TGI: 22.3 µM
BT-549 breast
  GI50: 9.38 µM
  TGI: 26.3 µM
SNB-75 CNS
  GI50: 1.61 µM
  TGI: 11.1 µM
HCT-116 colon
  GI50: 4.68 µM
  TGI: 17.4 µM
NCI-H460 lung
  GI50: 5.46 µM
  TGI: 23.1 µM
A549 NSCLC
  GI50: 7.85 µM
  TGI: 25.4 µM
SNB-19 CNS
  GI50: 14.2 µM
  TGI: 32.2 µM
SF-268 CNS
  GI50: 5.51 µM
  TGI: 25.7 µM
SK-MEL-28 melanoma
  GI50: 11.4 µM
  TGI: 27 µM
HOP-62 NSCLC
  GI50: 6.61 µM
  TGI: 30.2 µM
HS 578T breast
  GI50: 1.7 µM
  TGI: 10.4 µM
NCI-H23 lung
  GI50: 11.6 µM
  TGI: 35.2 µM
HOP-92 NSCLC
  GI50: 2.54 µM
  TGI: 16.2 µM
OVCAR-8 ovarian
  GI50: 13.4 µM
  TGI: 32.3 µM
SF-295 CNS
  GI50: 3.69 µM
  TGI: 20.9 µM
UACC-62 melanoma
  GI50: 11 µM
  TGI: 23.4 µM
LOX IMVI melanoma
  GI50: 3.05 µM
  TGI: 13.2 µM
MOLT-4 leukemia
  GI50: 3 µM
  TGI: 12.5 µM
HCC-2998 colon
  GI50: 11.2 µM
  TGI: 24.3 µM
RXF 393 renal
  GI50: 2.55 µM
  TGI: 12.5 µM
KM12 colon
  GI50: 0.0293 µM
  TGI: 13.8 µM
UACC-257 melanoma
  GI50: 11.2 µM
  TGI: 27 µM
HT29 colon
  GI50: 3.51 µM
  TGI: 14.6 µM
SR leukemia
  GI50: 2 µM
  TGI: 5.33 µM
MALME-3M melanoma
  GI50: 9.87 µM
  TGI: 26.7 µM
OVCAR-4 ovarian
  GI50: 6.42 µM
  TGI: 28.7 µM
NCI/ADR-RES ovarian
  GI50: > 100 µM
  TGI: > 100 µM
T-47D breast
  GI50: 3.8 µM
  TGI: 18.6 µM
PC-3 prostate
  GI50: 10.2 µM
  TGI: 33.2 µM
HCT-15 colon
  GI50: 12.3 µM
  TGI: 39.2 µM
UO-31 renal
  GI50: 6.26 µM
  TGI: 27.8 µM
SN12C renal
  GI50: 7.82 µM
  TGI: 24 µM
ACHN renal
  GI50: 7.6 µM
  TGI: 26.7 µM
MCF7 breast
  GI50: 3.25 µM
  TGI: 16.9 µM
SK-OV-3 ovarian
  GI50: 11.7 µM
  TGI: 30.9 µM
OVCAR-3 ovarian
  GI50: 12.7 µM
  TGI: 25.8 µM
U251 CNS
  GI50: 2.87 µM
  TGI: 18.7 µM
MDA-MB-231 breast
  GI50: 3.53 µM
  TGI: 12.2 µM
TK-10 renal
  GI50: 12.4 µM
  TGI: 26.7 µM
786-0 renal
  GI50: 4.8 µM
  TGI: 24.2 µM
OVCAR-5 ovarian
  GI50: 13.8 µM
  TGI: 46.6 µM
M14 melanoma
  GI50: 6.13 µM
  TGI: 20.3 µM
NCI-H522 lung
  GI50: 3.29 µM
  TGI: 13.2 µM
NCI-H226 lung
  GI50: 12.6 µM
  TGI: 40 µM
CAKI-1 renal
  GI50: 17.4 µM
  TGI: 51.8 µM
